Laboratory results from patent US20120315290A1, “INHIBITORS OF LL-37 MEDIATED IMMUNE REACTIVITY TO SELF NUCLEIC ACIDS” (BOARD OF REGENTS, THE UNIVERSITY OF TEXAS SYSTEM, priority 2006, published 2012).

Test system: murine pDC
Assay: Murine pDC stimulation with peptide/DNA complexes (IFN-a ELISA)
Type: cell-based, mouse
Conditions: complexed with DNA
Procedure: Murine pDC were generated from Flt3 ligand supplemented BM cultures and isolated by sorting of CD11c+CD11b-B220+ cells, as previously described. 50,000 murine pDC in […] of complete medium were stimulated with human LL-37 ([…]), mouse CRAMP ([…]), DNA alone, or DNA plus LL-37 or DNA plus CRAMP. After overnight culture supernatants were collected and tested for IFN-a by ELISA.
Murine pDC respond to LL-37-DNA complexes. To determine whether mouse pDCs can respond to LL-37/DNA complexes, we purified mouse pDCs from Flt3L-supplemented BM cultures according to their CD11c+CD11b-B220+ phenotype, and stimulated them with DNA complexed with LL-37 or CRAMP (the murine LL-37 homologue). […] However, compared to LL-37, approximately 3 times more CRAMP was required to elicit the same amount of type I IFNs (FIG. 27).

CRAMP
Amount required to elicit the same amount of type I IFNs, compared to LL-37: approximately 3 times
